Ki data for twelve compounds are collected here from patent US20100093764A1, “AMINES AND SULFOXIDES OF THIENO[2,3-d]PYRIMIDINE AND THEIR USE AS ADENOSINE A2a RECEPTOR ANTAGONISTS” (priority 2008, published 2010).

pKi: −log10 of the molar value. Structures can show the parent of a compound that is named as a salt.

The target in experiment [1] is T1, human adenosine A2a receptor (Homo sapiens, UniProt P29274).
T1 construct: expressed in transfected cells; host or cells: CHO-K1 cells with a cAMP inducible beta-galactosidase reporter gene
T1 sequence (P29274 whole entry): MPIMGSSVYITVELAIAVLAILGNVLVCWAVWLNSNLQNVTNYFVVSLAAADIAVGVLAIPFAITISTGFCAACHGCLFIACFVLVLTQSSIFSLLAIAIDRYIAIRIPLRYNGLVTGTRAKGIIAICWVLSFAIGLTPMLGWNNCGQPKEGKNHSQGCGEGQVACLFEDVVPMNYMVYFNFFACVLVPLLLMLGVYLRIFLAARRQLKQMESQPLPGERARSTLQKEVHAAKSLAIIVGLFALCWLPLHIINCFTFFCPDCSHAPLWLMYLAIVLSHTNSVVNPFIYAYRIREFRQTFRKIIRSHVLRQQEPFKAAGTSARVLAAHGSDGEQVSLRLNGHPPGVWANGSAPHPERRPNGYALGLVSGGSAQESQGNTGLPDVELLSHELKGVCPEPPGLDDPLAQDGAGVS
Nature of the experiment: Adenosine A2a Receptor Functional Assay (A2AGAL2). The format is cell-based. To be noted: CHO-K1 cells overexpressing human A2a receptor, cAMP inducible beta-galactosidase reporter, 15 nM NECA agonist challenge. The protocol:
Adenosine A2a Receptor Functional Assay (A2AGAL2)
(§1) To initiate the functional assay, cryopreserved CHO—K1 cells overexpressing the human adenosine A2a receptor and containing a cAMP inducible beta-galactosidase reporter gene were thawed, centrifuged, DMSO containing media removed, and then seeded with fresh culture media into clear 384-well tissue culture treated plates (BD #353961) at a concentration of 10K cells/well. Prior to assay, these plates were cultured for two days at 37° C., 5% CO2, 90% Rh. On the day of the functional assay, culture media was removed and replaced with 45 uL assay medium (Hams/F-12 Modified (Mediatech #10-080CV) supplemented w/0.1% BSA). Test compounds were diluted and 11 point curves created at a 1000× concentration in 100% DMSO. Immediately after addition of assay media to the cell plates, 50 nL of the appropriate test compound antagonist or agonist control curves were added to cell plates using a Cartesian Hummingbird. Compound curves were allowed to incubate at room temperature on cell plates for approximately 15 minutes before addition of a 15 nM NECA (Sigma E2387) agonist challenge (5 uL volume). A control curve of NECA, a DMSO/Media control, and a single dose of Forskolin (Sigma F3917) were also included on each plate. After additions, cell plates were allowed to incubate at 37° C., 5% CO2, 90% Rh for 5.5-6 hours. After incubation, media was removed, and cell plates were washed 1× 50 uL with DPBS w/o Ca & Mg (Mediatech 21-031-CV). Into dry wells, 20 uL of 1× Reporter Lysis Buffer (Promega E3971 (diluted in dH2O from 5× stock)) was added to each well and plates frozen at −20° C. overnight. For β-galactosidase enzyme calorimetric assay, plates were thawed out at room temperature and 20 μL 2× assay buffer (Promega) was added to each well. Color was allowed to develop at 37° C., 5% CO2, 90% Rh for 1-1.5 h or until reasonable signal appeared. The calorimetric reaction was stopped with the addition of 60 μL/well 1M sodium carbonate. Plates were counted at 405 nm on a SpectraMax Microplate Reader (Molecular Devices). Data was analyzed in Microsoft Excel and IC/EC50 curves were fit using a standardized macro.

The target of experiment [2] is T2, human adenosine A1 receptor (Homo sapiens, UniProt P30542).
T2 construct: expressed in transfected cells; host or cells: CHO-K1 cells with a cAMP inducible beta-galactosidase reporter gene
T2 sequence (P30542 1-326): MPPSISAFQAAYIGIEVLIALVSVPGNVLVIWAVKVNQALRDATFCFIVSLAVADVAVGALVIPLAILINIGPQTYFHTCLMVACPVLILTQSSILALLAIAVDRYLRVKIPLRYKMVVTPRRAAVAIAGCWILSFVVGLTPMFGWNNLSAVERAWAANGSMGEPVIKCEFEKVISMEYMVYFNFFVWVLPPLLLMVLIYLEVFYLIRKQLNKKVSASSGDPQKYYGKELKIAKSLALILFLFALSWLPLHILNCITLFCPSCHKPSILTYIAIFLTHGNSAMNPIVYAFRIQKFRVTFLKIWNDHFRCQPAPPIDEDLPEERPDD
The experiment can be described thus: Adenosine A1 Receptor Functional Assay (A1GAL2). The format is cell-based. The following applies: CHO-K1 cells overexpressing human A1 receptor, cAMP inducible beta-galactosidase reporter, 4 nM r-PIA/1 uM Forskolin agonist challenge. How it is done: Adenosine A1 Receptor Functional Assay (A1GAL2)
as §1, with “adenosine A1” for “adenosine A2a”, “a 4” for “a 15”, “nM r-PIA” for “nM NECA”, “(Sigma P4532)/1 uM Forskolin (Sigma F3917)” for “(Sigma E2387)”, “of r-PIA in 1 uM Forskolin,” for “of NECA,”, “Forskolin” for “Forskolin (Sigma F3917)”

For `N#Cc1cccc(-c2nc(N)c3cc(Nc4ccccc4)sc3n2)c1` [Example 1, (4-Amino-6-phenylamino-thieno[2,3-d]pyrimidin-2-yl)-benzonitrile], the negative logarithm of the Ki (pKi) (commonly the negative decadic logarithm of the Ki, by convention in mol/L) is 7.05 in experiment [1] and 5.94 in experiment [2].

`COc1ccccc1Nc1cc2c(N)nc(-c3cccc(C#N)c3)nc2s1` [Example 2, 3-[4-Amino-6-(2-methoxy-phenylamino)-thieno[2,3-d]pyrimidin-2-yl]-benzonitrile]: the pKi in experiment [1] is 7.94; in experiment [2], 6.57.

As for `COc1ccccc1N(C)c1cc2c(N)nc(-c3cccc(C#N)c3)nc2s1` [Example 3, 3-{4-Amino-6-[(2-methoxy-phenyl)-methyl-amino]-thieno[2,3-d]pyrimidin-2-yl}-benzonitrile], the pKi is 6.99 in experiment [1] and 6.24 in experiment [2].

Take `N#Cc1cccc(-c2nc(N)c3cc(Nc4ccccn4)sc3n2)c1` [Example 4, 3-[4-Amino-6-(pyridin-2-ylamino)-thieno[2,3-d]pyrimidin-2-yl]-benzonitrile]: the values for the negative-log Ki (pKi) in experiment [1] and in experiment [2] were 7.07 and 6.12, respectively.

Turning to `CN(c1ccccc1)c1cc2c(N)nc(-c3cccc(C#N)c3)nc2s1` [Example 5, 3-[4-Amino-6-(methyl-phenyl-amino)-thieno[2,3-d]pyrimidin-2-yl]-benzonitrile], the values for the negative-log Ki (pKi) in experiment [1] and in experiment [2] were 6.90 and 5.63, respectively.

In the case of `COc1cccc(Nc2cc3c(N)nc(-c4cccc(C#N)c4)nc3s2)c1` [Example 6, 3-[4-Amino-6-(3-methoxy-phenylamino)-thieno[2,3-d]pyrimidin-2-yl]-benzonitrile-hydrochloride], the pKi in experiment [1] is 6.58; in experiment [2], 5.62.

As for `N#Cc1cccc(-c2nc(N)c3cc(Nc4ccccc4Cl)sc3n2)c1` [Example 7, 3-[4-Amino-6-(2-chloro-phenylamino)-thieno[2,3-d]pyrimidin-2-yl]-benzonitrile-hydrochloride], the pKi is 6.64 in experiment [1] and 5.64 in experiment [2].

Consider `CN(c1cc2c(N)nc(-c3cccc(C#N)c3)nc2s1)c1ccccc1Cl` [Example 8, 3-{4-Amino-6-[(2-chloro-phenyl)-methyl-amino]-thieno[2,3-d]pyrimidin-2-yl}-benzonitrile], for which the pKi is 6.50 in experiment [1] and 5.56 in experiment [2].

Take `COc1cccc(N(C)c2cc3c(N)nc(-c4cccc(C#N)c4)nc3s2)c1` [Example 9, 3-{4-Amino-6-[(3-methoxy-phenyl)-methyl-amino]-thieno[2,3-d]pyrimidin-2-yl}-benzonitrile-hydrochloride]: the pKi was 6.56 in experiment [1] and 5.60 in experiment [2].

`N#Cc1cccc(-c2nc(N)c3cc(Nc4ccccc4F)sc3n2)c1` [Example 10, 3-[4-Amino-6-(2-fluoro-phenylamino)-thieno[2,3-d]pyrimidin-2-yl]-benzonitrile]: the pKi in experiment [1] is 6.88; in experiment [2], 5.59.

Take `CN(c1cccc(F)c1)c1cc2c(N)nc(-c3cccc(C#N)c3)nc2s1` [Example 11, 3-{4-Amino-6-[(3-fluoro-phenyl)-methyl-amino]-thieno[2,3-d]pyrimidin-2-yl}-benzonitrile]: the values for the pKi in experiment [1] and in experiment [2] were 6.40 and 5.28, respectively.

On to `N#Cc1cccc(-c2nc(N)c3cc(S(=O)(=O)c4ccccc4)sc3n2)c1` [Example 12, 3-(4-Amino-6-benzenesulfonyl-thieno[2,3-d]pyrimidin-2-yl)-benzonitrile], for which the negative-log Ki (pKi) in experiment [1] is 7.80; in experiment [2] it was 6.45.
